Results published in US8859018B2, “Delivery carrier for antimicrobial essential oils” (Nestec S.A., priority 2010, dated 2014).

Test system: Zygosaccharomyces bailii (yeast)
Test: Challenge test with yeasts in MOS / MAS
Type: cell-based
Details: for Week 0 (Log cfu/g) / Week 1 (Log cfu/g) / Week 2 (Log cfu/g) / Week 3 (Log cfu/g) / Week 4 (Log cfu/g): 0.10%
Procedure: Target microorganisms used for the challenge tests (CT) were Zygosaccharomyces bailii (yeast), Aspergillus niger (mould), Penicillium nalgiovense (mould) and Eurotium amstelodami (mould).
Stock culture of the yeast was revived on MEB. The inoculated broths were incubated at 30° C. for 48-72 hours with constant swirling. The broth cultures were further sub-cultured in the MEB and incubated similarly at 30° C. for 48-72 hours with constant swirling. The final broth cultures were then analyzed for total yeast counts on MEA plate as well as for microbial contamination on PCA by spread plat 0.1-0.5 ml of suspension onto the agar plates respectively. Before the challenge test is initiated, the broth inoculated with yeast was diluted aseptically with sterile Tryptone Salt 0.1% to the desired level such that the inoculation level in the product would be 2-3 log of colony-forming-units (cfu) of yeast per gram (Cfu: colony forming units).
Challenge Test with yeasts was according to the following steps: 1) Add 100 g of MOS into a 250 ml sterile Schott bottle with screw-cap cover; 2) Add 0.1 ml to 2 ml of yeast (Z. bailii) inoculum to meet the target inoculum of 10^2 to 10^3 cfu/g of MOS into the 100 g MOS and shake to mix well; 3) Pour 35 g of the inoculated MOS into two 150 ml sterile disposable polypropylene container with screw-cap cover; 4) Pipette 1 g of inoculated MOS into 9 ml sterile Tryptone Salt 0.1% diluent and vortex. Perform this in duplicate; 5) Plate 0.1 ml to 0.5 ml of inoculated Tryptone Salt 0.1% onto MEA at appropriate dilutions by Spread Plate Method. Incubate the plates at 30° C. for 3 days for the enumeration of the initial yeast count; 6) Incubate the inoculated MOS in 150 ml containers at 30° C. for a week; 7) After one week, repeat steps 4 to 6 for the weekly monitoring of Z. bailii growth behavior in MOS. Perform the monitoring for a period of 4 weeks; 8) The control was prepared by repeating steps 3 to 7 without using any inoculum.
The method for producing MAS was the same as for the MOS production in experiment 4. The preparation of the microorganism cultures as well as the challenge tests were identical to the ones described in experiment 4 as well.

[1] = MAGGI Abalone Sauce, age 0 month
[2] = MAGGI Abalone Sauce, age 1 month
[3] = MAGGI Abalone Sauce, age 3 month
[4] = MAGGI Abalone Sauce, age 6 month
[5] = MAGGI Abalone Sauce, age 10 month
[6] = MAGGI Abalone Sauce, age 12 month
[7] = MAGGI Oyster Sauce, age 0 month

C/C=C/C=C/C(=O)[O-].[K+] [KS, potassium sorbate]
Week 0 (Log cfu/g) [1]: <1.00 Log cfu/g
Week 1 (Log cfu/g) [1]: <1.00 Log cfu/g
Week 2 (Log cfu/g) [1]: <1.00 Log cfu/g
Week 3 (Log cfu/g) [1]: <1.00 Log cfu/g
Week 4 (Log cfu/g) [1]: <1.00 Log cfu/g
Week 0 (Log cfu/g) [2]: <1.00 Log cfu/g
Week 1 (Log cfu/g) [2]: <1.63 Log cfu/g
Week 2 (Log cfu/g) [2]: <1.00 Log cfu/g
Week 3 (Log cfu/g) [2]: <1.00 Log cfu/g
Week 4 (Log cfu/g) [2]: <1.00 Log cfu/g
Week 0 (Log cfu/g) [3]: 2.96 Log cfu/g
Week 1 (Log cfu/g) [3]: <1.00 Log cfu/g
Week 2 (Log cfu/g) [3]: <1.00 Log cfu/g
Week 3 (Log cfu/g) [3]: <1.00 Log cfu/g
Week 4 (Log cfu/g) [3]: <1.00 Log cfu/g
Week 0 (Log cfu/g) [4]: 2.13 Log cfu/g
Week 1 (Log cfu/g) [4]: <1.00 Log cfu/g
Week 2 (Log cfu/g) [4]: <1.00 Log cfu/g
Week 3 (Log cfu/g) [4]: <1.00 Log cfu/g
Week 4 (Log cfu/g) [4]: <1.00 Log cfu/g
Week 0 (Log cfu/g) [5]: 4.43 Log cfu/g
Week 1 (Log cfu/g) [5]: <2.00 Log cfu/g
Week 2 (Log cfu/g) [5]: <1.00 Log cfu/g
Week 3 (Log cfu/g) [5]: <1.00 Log cfu/g
Week 4 (Log cfu/g) [5]: <1.00 Log cfu/g
Week 0 (Log cfu/g) [6]: 2.84 Log cfu/g
Week 1 (Log cfu/g) [6]: 1.72 Log cfu/g
Week 2 (Log cfu/g) [6]: <1 Log cfu/g
Week 3 (Log cfu/g) [6]: <1 Log cfu/g
Week 4 (Log cfu/g) [6]: <1 Log cfu/g
yeast growth (MAGGI Abalone Sauce, up to 12 months, KS 0.10%, clove leaf oil 0.06 wt % and 0.15 wt %): not detected
Week 0 (Log cfu/g) [7]: 3.544 Log cfu/g
Week 1 (Log cfu/g) [7]: <1.00 Log cfu/g
Week 2 (Log cfu/g) [7]: <1.00 Log cfu/g
Week 3 (Log cfu/g) [7]: <1.00 Log cfu/g
Week 4 (Log cfu/g) [7]: <1.00 Log cfu/g
